For one assay, the target named is JH2 domain of human Tyk2 (Homo sapiens (Human), UniProt P29597). Description: JH2 Biochemical Assay (TR-FRET probe displacement). The class given is binding. Here is the method: The inhibitory potency of compounds of the disclosure against the kinase activity of recombinantly generated JH2 domain of human Tyk2 was evaluated in a plate-based assay using a TR-FRET assay platform. Briefly, 2 nM of recombinant JH2 domain [10×His-tagged TYK2 JH2 domain (amino acid 575-876)] was combined with 2 nM probe ((S)-6-amino-9-(2-carboxy-4-((1-(3-(8-methyl-5-(methylamino)-8H-imidazo[4,5-d]thiazolo[5,4-b]pyridin-2-yl)phenyl)ethyl)carbamoyl)phenyl)-3-iminio-5-sulfo-3H-xanthene-4-sulfonate), 0.1 nM Tb-labeled anti-His antibody, and compounds of disclosure for 60 minutes. Compounds are tested at either 10 μM or 1 μM top concentration, 10 points of 3-fold dilution. The TR-FRET signal inversely correlates to the amount of probe displaced by compounds and signal was calculated by taking the ratio of fluorescence at 520 nm and 495 nm. The data was normalized and the percent activity versus log concentration of compound was fitted with a 4-parameter logistic model to generate IC50 curves.
Chain of JH2 domain of human Tyk2 (P29597 575-876): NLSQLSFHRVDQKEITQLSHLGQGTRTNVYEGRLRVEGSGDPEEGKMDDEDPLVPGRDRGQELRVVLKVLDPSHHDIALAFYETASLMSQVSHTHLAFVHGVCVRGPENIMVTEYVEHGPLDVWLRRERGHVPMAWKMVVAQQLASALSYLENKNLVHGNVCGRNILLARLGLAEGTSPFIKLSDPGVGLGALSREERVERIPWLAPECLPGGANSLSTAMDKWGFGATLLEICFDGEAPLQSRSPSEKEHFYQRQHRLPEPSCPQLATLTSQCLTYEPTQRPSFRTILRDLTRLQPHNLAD
(In general: In TR-FRET formats the signal depends on donor and acceptor labels being close together.)

The next assay concerns the target Tyk2 (Homo sapiens (Human), UniProt P29597). Description: pSTAT4 Cell Assay (MSD, NK92 cells). Type of assay: cell-based.
Where [1] appears, read: JH2 domain of human Tyk2, TR-FRET probe displacement.
[2] abbreviates: TR-FRET probe displacement, JH2 domain of human Tyk2.
[3] abbreviates: TR-FRET probe displacement, JH2 domain.

SMILES strings stand for the structures. Where two headings read alike, the source gives them in different places.

Chain of Tyk2 (P29597 whole entry, the tested form may be a part): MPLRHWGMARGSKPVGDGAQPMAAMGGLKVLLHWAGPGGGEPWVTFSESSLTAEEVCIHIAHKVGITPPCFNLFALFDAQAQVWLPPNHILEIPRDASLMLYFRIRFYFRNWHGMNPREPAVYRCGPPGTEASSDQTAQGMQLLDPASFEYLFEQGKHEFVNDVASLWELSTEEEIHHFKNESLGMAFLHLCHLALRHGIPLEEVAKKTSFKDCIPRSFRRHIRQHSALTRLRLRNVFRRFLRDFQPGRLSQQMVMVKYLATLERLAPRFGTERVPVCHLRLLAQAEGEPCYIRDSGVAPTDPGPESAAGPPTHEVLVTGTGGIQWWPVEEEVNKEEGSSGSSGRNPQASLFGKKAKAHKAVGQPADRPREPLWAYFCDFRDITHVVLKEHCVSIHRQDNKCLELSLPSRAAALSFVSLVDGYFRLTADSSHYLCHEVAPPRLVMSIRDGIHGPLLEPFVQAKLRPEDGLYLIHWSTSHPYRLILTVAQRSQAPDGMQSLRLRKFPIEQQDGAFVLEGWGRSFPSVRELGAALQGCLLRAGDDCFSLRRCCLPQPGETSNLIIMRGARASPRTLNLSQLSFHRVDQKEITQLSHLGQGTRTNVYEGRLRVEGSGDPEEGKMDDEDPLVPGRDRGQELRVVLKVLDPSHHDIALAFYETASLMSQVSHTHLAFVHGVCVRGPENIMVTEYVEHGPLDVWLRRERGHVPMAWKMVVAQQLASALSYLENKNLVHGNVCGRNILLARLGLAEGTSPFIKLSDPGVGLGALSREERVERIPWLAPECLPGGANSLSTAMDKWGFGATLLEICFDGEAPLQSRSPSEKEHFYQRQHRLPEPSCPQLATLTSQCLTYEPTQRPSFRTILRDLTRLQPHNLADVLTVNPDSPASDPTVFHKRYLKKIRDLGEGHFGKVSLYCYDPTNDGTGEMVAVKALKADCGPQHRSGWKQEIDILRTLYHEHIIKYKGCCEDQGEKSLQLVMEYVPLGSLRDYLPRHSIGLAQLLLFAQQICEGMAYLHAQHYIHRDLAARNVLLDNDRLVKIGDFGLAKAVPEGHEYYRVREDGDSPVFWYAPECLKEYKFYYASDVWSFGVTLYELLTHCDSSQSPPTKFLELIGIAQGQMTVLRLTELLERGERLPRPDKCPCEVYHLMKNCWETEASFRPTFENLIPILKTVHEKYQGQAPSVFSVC

A word on the IC50: it is the midpoint of a concentration-inhibition curve. Read a high IC50 as weaker potency in that assay. In the case of `CC(=O)Nc1cc(Nc2cc(C)nc(C(C)(F)F)n2)c(-c2nccc(C)n2)cn1` [Example 671, N-(4-((2-(1,1-difluoroethyl)-6-methylpyrimidin-4-yl)amino)-5-(4-methylpyrimidin-2-yl)pyridin-2-yl)acetamide], the IC50 at JH2 domain of human Tyk2 (setting [1]) is at most 10 nM; on Tyk2 (MSD), 10 to 100 nM.
Consider `CC(=O)Nc1cc(Nc2cc(C)nc(C(C)(F)F)n2)c(OCC2(C)CCOC2)cn1` (stereo not shown) [Example 431, N-(4-((2-(1,1-difluoroethyl)-6-methylpyrimidin-4-yl)amino)-5-((3-methyltetrahydrofuran-3-yl)methoxy)pyridin-2-yl)acetamide], for which the IC50 was at most 10 nM on JH2 domain of human Tyk2 (setting [1]) and 100 to 1000 nM against Tyk2 (MSD).
As to `CC(=O)Nc1cc(Nc2cc(C)nc(C(C)(F)F)n2)c(OCc2ccncc2)cn1` [Example 473, N-(4-((2-(1,1-difluoroethyl)-6-methylpyrimidin-4-yl)amino)-5-((pyridin-4-yl)methoxy)pyridin-2-yl)acetamide], the values for the IC50 at JH2 domain of human Tyk2 (setting [1]) and on Tyk2 (MSD) were at most 10 nM and 10 to 100 nM, respectively.
With `CC(=O)Nc1cc(Nc2cc(C)nc(C(C)(F)F)n2)c(-c2cc(C)ncn2)cn1` [Example 197, N-(4-((2-(1,1-difluoroethyl)-6-methylpyrimidin-4-yl)amino)-5-(6-methylpyrimidin-4-yl)pyridin-2-yl)acetamide], the IC50 on JH2 domain of human Tyk2 (setting [2]) and at Tyk2 (MSD) was at most 10 nM throughout.
Take `COc1cnc(NC(C)=O)cc1Nc1cc(C)nc(C23COC(C)(C2)C3)n1` [Example 449, N-(5-methoxy-4-((6-methyl-2-(1-methyl-2-oxabicyclo[2.1.1]hexan-4-yl)pyrimidin-4-yl)amino)pyridin-2-yl)acetamide]: the IC50 is 100 to 1000 nM at JH2 domain of human Tyk2 (setting [1]) and at least 1000 nM against Tyk2 (MSD).
For the molecule `COc1cnc(NC(C)=O)cc1Nc1cc(-c2cnn(C3COC3)c2)nc(C(C)(F)F)n1` [Example 377, N-(4-((2-(1,1-difluoroethyl)-6-(1-(oxetan-3-yl)-1H-pyrazol-4-yl)pyrimidin-4-yl)amino)-5-methoxypyridin-2-yl)acetamide], the IC50 at JH2 domain of human Tyk2 (setting [1]) and at Tyk2 (MSD) was 10 to 100 nM throughout.
Turning to `COCCOc1cnc(NC(C)=O)cc1Nc1cc(C)nc(C(C)CF)n1` (stereo not shown) [Example 82, N-(4-((2-(1-fluoropropan-2-yl)-6-methylpyrimidin-4-yl)amino)-5-(2-methoxyethoxy)pyridin-2-yl)acetamide], the IC50 on JH2 domain of human Tyk2 (setting [2]) was at most 10 nM; against Tyk2 (MSD), 10 to 100 nM.
Regarding `CCOc1cnc(NC(C)=O)cc1Nc1cc(-c2cnn(CC(F)(F)F)c2)nc(C(C)(F)F)n1` [Example 309, N-(4-((2-(1,1-difluoroethyl)-6-(1-(2,2,2-trifluoroethyl)-1H-pyrazol-4-yl)pyrimidin-4-yl)amino)-5-ethoxypyridin-2-yl)acetamide], the IC50 on JH2 domain of human Tyk2 (setting [2]) was at most 10 nM; on Tyk2 (MSD), 10 to 100 nM.
As to `COc1cnc(NC(C)=O)cc1Nc1cc(C)nc(C2CCOC2)n1` (stereo not shown) [Example 451, N-(5-methoxy-4-((6-methyl-2-(tetrahydrofuran-3-yl)pyrimidin-4-yl)amino)pyridin-2-yl)acetamide], the IC50 was 10 to 100 nM on JH2 domain of human Tyk2 (setting [1]) and at least 1000 nM against Tyk2 (MSD).
Consider `COCc1cnn(-c2cnc(NC(C)=O)cc2Nc2cc(C)nc(C(C)(F)F)n2)c1` [Example 765, N-(4-((2-(1,1-difluoroethyl)-6-methylpyrimidin-4-yl)amino)-5-(4-(methoxymethyl)-1H-pyrazol-1-yl)pyridin-2-yl)acetamide], for which the results for the IC50 on JH2 domain of human Tyk2 (setting [3]) and against Tyk2 were at most 10 nM and 10 to 100 nM, respectively.
Turning to `CC(=O)Nc1cc(Nc2cncc(C(C)(C)F)n2)c(-c2ncc(F)cn2)cn1` [Example 189, N-(4-((6-(2-fluoropropan-2-yl)pyrazin-2-yl)amino)-5-(5-fluoropyrimidin-2-yl)pyridin-2-yl)acetamide], the IC50 at JH2 domain of human Tyk2 (setting [2]) and against Tyk2 (MSD) was 10 to 100 nM throughout.
At JH2 domain of human Tyk2 (setting [1]), `CC(=O)Nc1cc(Nc2cc(C)nc(C(C)(F)F)n2)c(-c2cc(CN3CCOCC3)n(C)n2)cn1` [Example 739, N-(4-((2-(1,1-difluoroethyl)-6-methylpyrimidin-4-yl)amino)-5-(1-methyl-5-(morpholinomethyl)-1H-pyrazol-3-yl)pyridin-2-yl)acetamide] came in with an IC50 of at most 10 nM.
In the case of `CC(=O)Nc1cc(Nc2ccnc(C(C)(F)F)n2)c(-c2nnc(C3CC3)o2)cn1` [Example 717, N-(5-(5-cyclopropyl-1,3,4-oxadiazol-2-yl)-4-((2-(1,1-difluoroethyl)pyrimidin-4-yl)amino)pyridin-2-yl)acetamide], the IC50 at JH2 domain of human Tyk2 (setting [1]) was at most 10 nM.
Molecule `CC(=O)Nc1cc(Nc2cc(C)nc(C(C)(F)F)n2)c(N2CCCC2)cn1` [Example 726, N-(4-((2-(1,1-difluoroethyl)-6-methylpyrimidin-4-yl)amino)-5-(pyrrolidin-1-yl)pyridin-2-yl)acetamide] displayed an IC50 at JH2 domain of human Tyk2 (setting [1]) of 10 to 100 nM.
In turn, `CCc1cc(Nc2cc(NC(C)=O)ncc2-c2noc(C)n2)nc(C(C)(F)F)n1` [Example 170, N-(4-((2-(1,1-difluoroethyl)-6-ethylpyrimidin-4-yl)amino)-5-(5-methyl-1,2,4-oxadiazol-3-yl)pyridin-2-yl)acetamide] returned an IC50 on JH2 domain of human Tyk2 (setting [2]) of 10 to 100 nM.
At JH2 domain of human Tyk2 (setting [1]), `COc1cc(C(F)(F)F)nc(Nc2cc(NC(C)=O)ncc2OC)n1` [Example 438, N-(5-methoxy-4-((4-methoxy-6-(trifluoromethyl)pyrimidin-2-yl)amino)pyridin-2-yl)acetamide] yielded an IC50 of 100 to 1000 nM.
On JH2 domain of human Tyk2 (setting [3]), `CC(=O)Nc1cc(Nc2cccc(C(C)(F)F)n2)c(-c2ccc3c(n2)OCC(C)(C)O3)cn1` [Example 820, N-(4-((6-(1,1-difluoroethyl)pyridin-2-yl)amino)-5-(2,2-dimethyl-2,3-dihydro-[1,4]dioxino[2,3-b]pyridin-6-yl)pyridin-2-yl)acetamide] yielded a half-inhibitory concentration (IC50) of at most 10 nM.
For the molecule `COCCOc1cc(Nc2ccnc(NC(C)=O)c2)nc(C(C)(F)F)n1` [Example 809, N-(4-((2-(1,1-difluoroethyl)-6-(2-methoxyethoxy)pyrimidin-4-yl)amino)pyridin-2-yl)acetamide], the IC50 at JH2 domain of human Tyk2 (setting [3]) fell in the range of 10 to 100 nM.
Molecule `CC(=O)Nc1cc(Nc2cc(C)nc(C(C)(F)F)n2)c(OCC2(C)CCCCO2)cn1` (stereo not shown) [Example 435, N-(4-((2-(1,1-difluoroethyl)-6-methylpyrimidin-4-yl)amino)-5-((2-methyltetrahydro-2H-pyran-2-yl)methoxy)pyridin-2-yl)acetamide] returned an IC50 on JH2 domain of human Tyk2 (setting [1]) of at most 10 nM.
As to `CC(=O)Nc1cc(Nc2cc(C)nc(C(C)(F)F)n2)c(-c2cnc(C(C)N3CCCC3)cn2)cn1` (stereo not shown) [Example 742, N-(4-((2-(1,1-difluoroethyl)-6-methylpyrimidin-4-yl)amino)-5-(5-(1-(pyrrolidin-1-yl)ethyl)pyrazin-2-yl)pyridin-2-yl)acetamide], the IC50 on JH2 domain of human Tyk2 (setting [1]) was at most 10 nM.
Molecule `CC(=O)Nc1cc(Nc2cc(C)nc(C34COC(C3)C4)n2)c(-c2ccc(F)cn2)cn1` [Example 752, N-(4′-((2-(2-oxabicyclo[2.1.1]hexan-4-yl)-6-methylpyrimidin-4-yl)amino)-5-fluorO[2,3′-bipyridin]-6′-yl)acetamide] registered an IC50 on JH2 domain of human Tyk2 (setting [3]) of at most 10 nM.
Consider `CCOc1cnc(NC(=O)C2CC2)cc1Nc1cc(C)nc(C(C)(F)F)n1` [Example 28, N-(4-((2-(1,1-difluoroethyl)-6-methylpyrimidin-4-yl)amino)-5-ethoxypyridin-2-yl)cyclopropanecarboxamide], for which the IC50 on JH2 domain of human Tyk2 (setting [2]) was in the range of 10 to 100 nM.
The same measure, in the same setting: under `CC(=O)Nc1cc(Nc2cc(C)nc(C(C)(F)F)n2)c(CCCN(C)C)cn1` [Example 151, N-(4-((2-(1,1-difluoroethyl)-6-methylpyrimidin-4-yl)amino)-5-(3-(dimethylamino)propyl)pyridin-2-yl)acetamide] stands 100 to 1000 nM.
At JH2 domain of human Tyk2 (setting [1]), `COc1cnc(NC(C)=O)cc1Nc1cc(OC2CC2)nc(C(F)(F)F)n1` [Example 437, N-(4-((6-cyclopropoxy-2-(trifluoromethyl)pyrimidin-4-yl)amino)-5-methoxypyridin-2-yl)acetamide] returned an IC50 of 10 to 100 nM.
Molecule `CC(=O)Nc1cc(Nc2cc(C)nc(C(C)(F)F)n2)c(OCc2ncsc2C)cn1` [Example 329, N-(4-((2-(1,1-difluoroethyl)-6-methylpyrimidin-4-yl)amino)-5-((5-methylthiazol-4-yl)methoxy)pyridin-2-yl)acetamide] came in with an IC50 on JH2 domain of human Tyk2 (setting [2]) of 10 to 100 nM.
Take `CC(=O)Nc1cc(Nc2cc(C)nc(C(C)(F)F)n2)c(-c2cc(F)ccn2)cn1` [Example 624, N-(4′-((2-(1,1-difluoroethyl)-6-methylpyrimidin-4-yl)amino)-4-fluorO[2,3′-bipyridin]-6′-yl)acetamide]: the IC50 on JH2 domain of human Tyk2 (setting [1]) is at most 10 nM.
Molecule `CC(=O)Nc1cc(Nc2ccnc(C(C)(F)F)n2)c(-c2csc(C(C)(C)F)n2)cn1` [Example 713, N-(4-((2-(1,1-difluoroethyl)pyrimidin-4-yl)amino)-5-(2-(2-fluoropropan-2-yl)thiazol-4-yl)pyridin-2-yl)acetamide] came in with an IC50 on JH2 domain of human Tyk2 (setting [1]) of at most 10 nM.
Molecule `CC(=O)Nc1cc(Nc2cc(C)nc(C(C)(F)F)n2)c(-c2nc(CN3CCN(C)CC3)cs2)cn1` [Example 785, N-(4-((2-(1,1-difluoroethyl)-6-methylpyrimidin-4-yl)amino)-5-(4-((4-methylpiperazin-1-yl)methyl)thiazol-2-yl)pyridin-2-yl)acetamide] had an IC50 on JH2 domain of human Tyk2 (setting [3]) of at most 10 nM.
Consider `CCOc1cnc(NC(C)=O)cc1N(C)c1cc(C)nc(C(C)(F)F)n1` [Example 54, N-(4-((2-(1,1-difluoroethyl)-6-methylpyrimidin-4-yl)(methyl)amino)-5-ethoxypyridin-2-yl)acetamide], for which the IC50 on JH2 domain of human Tyk2 (setting [2]) was at least 1000 nM.

The record behind these values is patent publication US20260028365A1 (BIOGEN MA INC., priority 2022, published 2026).
